Laboratory results: article PMC10541198, “Specific quinone reductase 2 inhibitors reduce metabolic burden and reverse Alzheimer’s disease phenotype in mice” (The Journal of Clinical Investigation, 2023)
“And” between values parts separate entries of the source, which are not always exact repeats. Equal entries are not always repeated.

Assays:
QR2 = target: T1, QR2 (Homo sapiens, UniProt P16083); assay: QR2 activity assay, BNAH fluorescence (standard/primary); assay type: biochemical; conditions: for IC50: Figure 2D, readout not stated
T1 construct: purchased Sigma-Aldrich
T1 sequence (P16083 1-231): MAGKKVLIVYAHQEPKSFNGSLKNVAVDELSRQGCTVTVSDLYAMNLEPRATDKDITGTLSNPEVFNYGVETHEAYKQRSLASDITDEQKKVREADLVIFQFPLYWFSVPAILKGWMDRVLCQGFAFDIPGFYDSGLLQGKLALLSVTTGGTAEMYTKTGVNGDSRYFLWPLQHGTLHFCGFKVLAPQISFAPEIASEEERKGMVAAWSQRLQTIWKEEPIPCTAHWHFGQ
From the text: (§1) A drug discovery campaign strategy was initiated to screen compounds for QR2-specific, cell-free inhibition and in vitro activity, followed by SAR optimization (Figure 2A) to achieve highly specific and potent QR2 inhibitor synthesis. In order to establish a varied and chemically amenable starting point, we developed a high-throughput QR2 assay (Supplemental Methods) that we screened against a library with approximately 200,000 compounds. […] Compounds that replicated the initial hit result were then assayed similarly against QR1 to evaluate compound specificity (Figure 2B). From the HTS, a chemically tractable and attractive series of compounds containing a sulfone flanked by an amine and a heterocycle were identified and selected for SAR development (Figure 2C, Supplemental Methods, Supplemental Table 1, and Supplemental Table 2). […]
High Throughput Screen (H TS)
The enzymatic activity of QR 2 (10 nM) was measur ed using menadione (both Sigm a -Aldrich) as subst r at e and dihydro- benzylnicotinamide (BNAH; Tocris) as co-substrate(62). The reaction was performed in 50 mM Tri s HCl, 150 mM NaCl 0.01%Tween- 20 pH=8.5 (Sigma-Aldrich) at r oom tem per atur e. Briefl y, 3 µL of menadione alone (200 µM) or a mixture of menadione and QR2 (200 µM of […]
(§2) menadione and 10 nM of QR2) were dispensed in 1536-well black Nunc plates (Thermo-Fisher) using aMultidrop™ Combi Reagent Dispenser (Thermo-Fisher) and pre-incubated with compounds for 10min. BNAH (200µM) was t hen added (3 µL) to the reaction using a BioNex Solutions BNX1536plate washer and the plates were incubated for another 10 min. Fluorescence intensity was followed in a PHERAstar FS multi-mode plate reader (BMG Labtech) us i ng an optic module with excitation at 360 nm and emission at 470 nm. The initial HTS includedapproximately 200,000 compounds at a single concentrationof 5 µM. The chemical libraries used were Selleck Chemicals Bioactives, the Drug-like set from Enamine, HitFinder collection from Maybridge, Spectrum Collection from Microsource, Lopa c from Sigma -Aldrich and the diversity set s from Chem Div and Che m Br idge .
Initial ‘‘hit’’ compounds were defined as causing >30% reduction of enzyme activity. Compounds suspected to be fluorescent were re -assayed in an absorbance assay at 350 nm using the same reaction but in a higher volume (100 µL), in a transparent plate (Greiner Bio- One). ‘‘Hit’’ compounds resulting from both the fluorescence and absorbance assay wer e t ested in a concentration- response, and IC50 values were de t er mi ne d. In parallel, the same concentration response methodologywas appliedin a selectivity assay where QR2 enzymewas replaced byQR1 […]
Chromatography System, with UV/Vis detector 2489, using XBridge® Prep C18 10 μm 10x250 mm […]
was monitored by Wat er s UPLC-MS system: Acquity UPLC® H class with PDA detector, and using […]

QR1 = target: T2, QR1 (Homo sapiens, UniProt P15559); assay: QR1 selectivity assay, fluorescence; assay type: biochemical; conditions: Figure 2D; readout not stated
T2 construct: purchased Sigma-Aldrich
T2 sequence (P15559 whole entry): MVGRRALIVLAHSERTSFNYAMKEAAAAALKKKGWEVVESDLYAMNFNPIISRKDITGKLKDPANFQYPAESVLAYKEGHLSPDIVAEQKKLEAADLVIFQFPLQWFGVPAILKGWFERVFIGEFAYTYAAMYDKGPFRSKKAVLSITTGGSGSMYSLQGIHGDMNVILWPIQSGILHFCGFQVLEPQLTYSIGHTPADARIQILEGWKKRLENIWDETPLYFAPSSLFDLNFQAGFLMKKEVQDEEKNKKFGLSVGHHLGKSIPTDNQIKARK
From the text: as §1, §2
Initial ‘‘hit’’ compounds were defined as causing >30% reduction of enzyme activity. Compounds suspected to be fluorescent were re -assayed in an absorbance assay at 350 nm using the same reaction but in a higher volume (100 µL), in a transparent plate (Greiner Bio- One). ‘‘Hit’’ compounds resulting from both the fluorescence and absorbance assay wer e t ested in a concentration- response, and IC50 values were de t er mi ne d. In parallel, the same

4-HNE = assay: Immunoblot of 4-HNE 3 hours after CA1 microinjection; assay type: in vivo, mouse
Protocol: In order to evaluate the efficacy of some of the leading QR2is in vivo, we carried out double-blind experiments using 2 different modalities (Supplemental Methods), measuring memory that is dependent on different brain areas. First, cortical memory was tested using incidental novel taste learning (see Methods), in which an unfamiliar, but palatable and safe, taste is given for the first time, and the memory for this newly learned taste is then assessed 2 days later. This is done by measuring the volume of the taste consumed upon subsequent exposure to it ([32]) (Figure 4A). […] Next, hippocampal-dependent learning was evaluated using delay fear conditioning (DFC; see Methods) ([33]). Mice were cannulated to the CA1 region of the hippocampus and were microinjected with YB-537 (1 μL of 5 μM, Figure 4, D and H) or vehicle. […] In order to evaluate any possible effect of acute QR2i microinjection on metabolic stress in the mouse brain, ISR activation was measured by quantifying total and phosphorylated eukaryotic initiation factor 2 α (eIF2α) levels (Supplemental Figure 3A) and lipid peroxidation product, 4-hydroxynonenal (4-HNE; Supplemental Figure 3B), by immunoblot 3 hours after the injection. […]

## Cc1ccc(-c2cn3cccc(C)c3n2)cc1S(=O)(=O)N1CCCC1 [YB-808]
QR2
  IC50: 0.01 µM

## Cc1ccc(-c2cn3cccc(C)c3n2)cc1S(=O)(=O)N1CCC(C)CC1 [YB-800]
QR2
  IC50: 0.03 µM
QR1
  IC50: > 9.99 µM

## Cc1ccc(-c2cn3cccc(C)c3n2)cc1S(=O)(=O)N1CCNCC1 [YB-537]
QR2
  binding affinity to QR2 than to QR1: more than 6,000 fold
  specificity to QR2 compared with QR1: more than 6,000 times
  IC50: 0.003 µM
QR1
  IC50: > 9.99 µM
4-HNE; 3 hours after microinjection in the mouse hippocampus
  4-HNE levels: insignificant reduction
4-HNE; individual animals
  Sup. Fig. 3B, immunoblot signal: 1.944 and 1.965 and 2.545 and 1.185 and 0.887 and 2.092 and 2.161
